Results taken from PubChem BioAssay AID248 (DTP/NCI, 2004).
Toxic doses and inconclusive results are not listed. Cut-off read from the data, not from the text of the source: active = T/C of 150% or more; inactive = T/C below 125%. Square brackets hold non-standard residues; d marks the D form. Peptide text beside a SMILES is read from it. βAla = NCCC(=O)O

System: L1210 leukemia ip in BDF1 mice, survival T/C
Experiment: NCI In Vivo Anticancer Drug Screen. Data for tumor model L1210 Leukemia (intraperitoneal) in B6D2F1 (BDF1) mice
Conditions: endpoint: mean survival time, higher = longer survival
How it was run: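 Read-out is survival time, reported as the treated-group measurement over the vehicle-control measurement.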

[1] = dose: 50.0 mg/kg/injection, schedule: Q01DX001 (ip), vehicle: carboxymethylcellulose (CMC)
[2] = dose: 100.0 mg/kg/injection, schedule: Q01DX001 (ip), vehicle: carboxymethylcellulose (CMC)
[3] = dose: 200.0 mg/kg/injection, schedule: Q01DX001 (ip), vehicle: carboxymethylcellulose (CMC)
[4] = dose: 400.0 mg/kg/injection, schedule: Q01DX001 (ip), vehicle: carboxymethylcellulose (CMC)
[5] = dose: 100.0 mg/kg/injection, schedule: Q01DX001 (ip), vehicle: saline
[6] = dose: 100.0 mg/kg/injection, schedule: Q01DX009 (ip), vehicle: saline with Tween-80
[7] = dose: 400.0 mg/kg/injection, schedule: Q01DX009 (ip), vehicle: saline with Tween-80
[8] = dose: 100.0 mg/kg/injection, schedule: Q04DX003 (ip), vehicle: Klucel (hydroxypropylcellulose) (HPC)
[9] = dose: 100.0 mg/kg/injection, schedule: Q04DX003 (ip), vehicle: saline with Tween-80
[10] = dose: 200.0 mg/kg/injection, schedule: Q04DX003 (ip), vehicle: Klucel (hydroxypropylcellulose) (HPC)
[11] = dose: 200.0 mg/kg/injection, schedule: Q04DX003 (ip), vehicle: saline with Tween-80
[12] = dose: 400.0 mg/kg/injection, schedule: Q04DX003 (ip), vehicle: Klucel (hydroxypropylcellulose) (HPC)
[13] = dose: 400.0 mg/kg/injection, schedule: Q04DX003 (ip), vehicle: saline with Tween-80
[14] = dose: 200.0 mg/kg/injection, schedule: Q01DX009 (ip), vehicle: saline with Tween-80
[15] = dose: 100.0 mg/kg/injection, schedule: Q04DX003 (ip), vehicle: saline
[16] = dose: 200.0 mg/kg/injection, schedule: Q04DX003 (ip), vehicle: saline
[17] = dose: 100.0 mg/kg/injection, schedule: Q01DX009 (ip), vehicle: Klucel (hydroxypropylcellulose) (HPC)
[18] = dose: 200.0 mg/kg/injection, schedule: Q01DX009 (ip), vehicle: Klucel (hydroxypropylcellulose) (HPC)
[19] = dose: 25.0 mg/kg/injection, schedule: Q01DX009 (ip), vehicle: Klucel (hydroxypropylcellulose) (HPC)
[20] = dose: 400.0 mg/kg/injection, schedule: Q01DX009 (ip), vehicle: Klucel (hydroxypropylcellulose) (HPC)

Measured: T/C

NC(=O)C1(Nc2ccc(-c3ccccc3)cc2)CCCC1
inactive: [1] 96 % of control | [2] 96 % of control | [3] 88 % of control | [4] 90 % of control

CC1Nc2ccccc2NC1C (stereo not given)
inactive: [5] 98 % of control

Cc1nn2cnnc2s1
inactive: dose: 50.0 mg/kg/injection, schedule: Q01DX001 (ip), vehicle: saline 98 % of control | [5] 101 % of control | dose: 200.0 mg/kg/injection, schedule: Q01DX001 (ip), vehicle: saline 98 % of control | dose: 400.0 mg/kg/injection, schedule: Q01DX001 (ip), vehicle: saline 101 % of control

c1ccc(Oc2ccc(-c3ccc(Oc4ccccc4)cc3)cc2)cc1
inactive: [6] 91 % of control | [7] 91 % of control

O=C(O)C1(c2ccccc2)OC1c1ccccc1 (stereo not given)
inactive: dose: 100.0 mg/kg/injection, schedule: Q01DX001 (ip), vehicle: Klucel (hydroxypropylcellulose) (HPC) 93 % of control | [8] 95 % of control | [9] 90 % of control | dose: 200.0 mg/kg/injection, schedule: Q01DX001 (ip), vehicle: Klucel (hydroxypropylcellulose) (HPC) 91 % of control | [10] 95 % of control | [11] 86 % of control | dose: 400.0 mg/kg/injection, schedule: Q01DX001 (ip), vehicle: Klucel (hydroxypropylcellulose) (HPC) 93 % of control | [12] 86 % of control | [13] 92 % of control

O=[N+]([O-])c1ccc(S(=O)(=O)Nc2ccccc2-c2ccccc2)cc1
inactive: [6] 96 % of control | [9] 91 % of control | [14] 98 % of control | [11] 91 % of control | [7] 96 % of control | [13] 86 % of control

Nc1ncc(CBr)c(N)n1
inactive: [15] 97 % of control | [16] 96 % of control

COc1ccc(I)c([N+](=O)[O-])c1
inactive: [17] 96 % of control | [8] 100 % of control | [18] 96 % of control | [10] 94 % of control | [12] 103 % of control

O=c1cc(-c2cccs2)ss1
inactive: [6] 89 % of control | [9] 102 % of control | [14] 105 % of control | [11] 94 % of control | [7] 86 % of control | [13] 104 % of control

CC12CCC(O)CC1=CC=C1C2CCC2(C)C(OC(=O)c3ccccc3)CCC12 (stereo not given)
inactive: dose: 100.0 mg/kg/injection, schedule: Q01DX001 (ip), vehicle: saline with Tween-80 91 % of control | dose: 200.0 mg/kg/injection, schedule: Q01DX001 (ip), vehicle: saline with Tween-80 93 % of control | dose: 400.0 mg/kg/injection, schedule: Q01DX001 (ip), vehicle: saline with Tween-80 98 % of control

CC(C)(SCc1ccccc1)C(N)C(=O)O (stereo not given)
inactive: dose: 75.0 mg/kg/injection, schedule: Q01DX001 (ip), vehicle: saline 104 % of control | dose: 100.0 mg/kg/injection, schedule: Q01DX009 (ip), vehicle: saline 91 % of control | [15] 105 % of control | dose: 150.0 mg/kg/injection, schedule: Q01DX001 (ip), vehicle: saline 98 % of control | dose: 200.0 mg/kg/injection, schedule: Q01DX009 (ip), vehicle: saline 98 % of control | [16] 102 % of control | dose: 400.0 mg/kg/injection, schedule: Q01DX009 (ip), vehicle: saline 91 % of control | dose: 400.0 mg/kg/injection, schedule: Q04DX003 (ip), vehicle: saline 97 % of control

Cc1ccc(S(=O)(=O)N2CC(=O)CCc3ccc(Cl)cc32)cc1
inactive: dose: 75.0 mg/kg/injection, schedule: Q01DX009 (ip), vehicle: other 100 % of control | dose: 150.0 mg/kg/injection, schedule: Q01DX009 (ip), vehicle: other 100 % of control | dose: 300.0 mg/kg/injection, schedule: Q01DX009 (ip), vehicle: other 100 % of control

COc1ccc(N=O)c(O)c1
inactive: [19] 104 % of control | [1] 93 % of control | dose: 50.0 mg/kg/injection, schedule: Q01DX009 (ip), vehicle: Klucel (hydroxypropylcellulose) (HPC) 103 % of control | [2] 97 % of control | [17] 106 % of control | [3] 104 % of control | [4] 101 % of control

O=C(CCl)Nc1ccc(CCN2C(=O)CC(c3ccccc3)C2=O)cc1 (stereo not given)
inactive: dose: 100.0 mg/kg/injection, schedule: Q04DX002 (ip), vehicle: saline with Tween-80 93 % of control | dose: 200.0 mg/kg/injection, schedule: Q04DX002 (ip), vehicle: saline with Tween-80 97 % of control | dose: 400.0 mg/kg/injection, schedule: Q04DX002 (ip), vehicle: saline with Tween-80 89 % of control

C=CCc1cc2c(cc(OC)c1=O)C(NC(C)=O)CCc1cc(OC)c(OC)c(OC)c1-2 (stereo not given)
inactive: [2] 106 % of control | [3] 109 % of control | [4] 114 % of control

CCOC(=O)Cc1cc(=O)n(C)c2ccccc12
inactive: dose: 100.0 mg/kg/injection, schedule: Q01DX001 (ip), vehicle: other 97 % of control | dose: 200.0 mg/kg/injection, schedule: Q01DX001 (ip), vehicle: other 97 % of control | dose: 400.0 mg/kg/injection, schedule: Q01DX001 (ip), vehicle: other 103 % of control

C=C(Cl)CC1(C(=O)OCC)CCN(S(=O)(=O)c2ccc(C)cc2)c2ccccc2C1=O (stereo not given)
inactive: [8] 94 % of control | [10] 98 % of control | [12] 88 % of control

COc1ccc(Cl)cc1NS(=O)(=O)c1ccc(Cl)cc1
inactive: [17] 97 % of control | [18] 102 % of control | [20] 92 % of control

O=C1CC(Nc2ccccc2)C(=O)N1c1cccc2ccccc12 (stereo not given)
inactive: [17] 102 % of control | [18] 96 % of control | [20] 91 % of control

CCOC(=O)c1ccc(NC(=O)Nc2cccc(Cl)c2)cc1
inactive: dose: 3.0 mg/kg/injection, schedule: Q01DX009 (ip), vehicle: Klucel (hydroxypropylcellulose) (HPC) 94 % of control | dose: 6.0 mg/kg/injection, schedule: Q01DX009 (ip), vehicle: Klucel (hydroxypropylcellulose) (HPC) 107 % of control | dose: 12.0 mg/kg/injection, schedule: Q01DX009 (ip), vehicle: Klucel (hydroxypropylcellulose) (HPC) 94 % of control | [19] 101 % of control | [17] 93 % of control

Cc1c2c(n(C)c1C(=O)N1CCCCC1)CCCC2=O
inactive: dose: 75.0 mg/kg/injection, schedule: Q01DX001 (ip), vehicle: carboxymethylcellulose (CMC) 103 % of control | dose: 150.0 mg/kg/injection, schedule: Q01DX001 (ip), vehicle: carboxymethylcellulose (CMC) 101 % of control | dose: 300.0 mg/kg/injection, schedule: Q01DX001 (ip), vehicle: carboxymethylcellulose (CMC) 98 % of control

CC(NC(=O)C(CCC(=O)O)NC(=O)C(N)Cc1ccc(O)cc1)C(=O)NCCC(=O)NC(Cc1ccc(O)cc1)C(=O)NC(CCC(=O)O)C(=O)NC(C)C(=O)NCCC(=O)NCC(=O)O (stereo not given) (H-YEA[βAla]YEA[βAla]G-OH; configuration not given here)
inactive: [1] 93 % of control | [2] 96 % of control | [3] 98 % of control

CCCCCCCCCCCCNC(=O)Nc1cccc(C)c1C
inactive: [17] 89 % of control | [8] 98 % of control | [18] 100 % of control | [10] 95 % of control | [20] 89 % of control | [12] 95 % of control
